Laboratory results taken from ChEMBL document CHEMBL6096634, “Exploration of novel 20S proteasome activators featuring anthraquinone structures and their application in hypoxic cardiomyocyte protection” (Bioorg Med Chem, 2024).
Active and inactive are the calls of the source. The calls are words filed in the database; no cut-off is given here.

What was measured:
[1] = biological target: 20S proteasome; experiment: (§1) Activation of human erythrocyte-derived 20s proteosome using CT-L as peptide substrate by fluorescence based analysis; type: cell-based
[2] = biological target: T1, 20S proteasome (Homo sapiens) (UniProt P49721+P20618+P28074+P28062+P28065+P28072+P25786+P25787+P25788+P25789+P28066+P60900+O14818+Q8TAA3+P40306+A5LHX3+P49720+P28070+Q99436); experiment: as §1; type: cell-based; conditions: for EC200: filed as activator
[3] = biological target: T1, 20S proteasome (Homo sapiens); experiment: Activation of human erythrocyte-derived 20s proteosome using CT-L as peptide substrate at 10 uM by fluorescence based analysis relative to control; type: cell-based; conditions: filed as activator
[4] = biological target: T1, 20S proteasome (Homo sapiens); experiment: Activation of human erythrocyte-derived 20s proteosome using T-L as peptide substrate by fluorescence based analysis; type: cell-based; conditions: filed as activator
[5] = tested on: H9c2; experiment: Protection against hypoxia-induced cell damage in rat H9c2 cells at 0.025 uM incubated for 14 hrs by MTT assay; type: functional, cell-based
[6] = tested on: H9c2; experiment: Protection against hypoxia-induced cell damage in rat H9c2 cells at 0.05 uM incubated for 14 hrs by MTT assay; type: functional, cell-based
[7] = tested on: H9c2; experiment: Upregulation of Ki-67 expression in rat H9c2 cells at 0.25 uM under normoxic condition by qRT-PCR analysis; type: functional, cell-based
[8] = tested on: H9c2; experiment: Effect on PCNA expression in rat H9c2 cells at 0.25 uM under hypoxic condition by qRT-PCR analysis; type: functional, cell-based
[9] = tested on: H9c2; experiment: Effect on PCNA expression in rat H9c2 cells at 0.25 uM under normoxic condition by qRT-PCR analysis; type: functional, cell-based
[10] = tested on: H9c2; experiment: Upregulation of Ki-67 expression in rat H9c2 cells at 0.25 uM under hypoxic condition by qRT-PCR analysis; type: functional, cell-based
[11] = tested on: HEK293; experiment: Inhibition of […]-induced ER stress in HEK293 cells harbouring XBP1-delta DBD-Luc cells assessed as decrease in luciferase activity incubated for 8 hrs by […]; type: functional, cell-based; conditions: Homo sapiens, dose 10-20 µM

Row | EC50 [1] | EC200 [2] | Activity [3] | fold change (FC) [4] | Activity [2] | SMILES | Activity [5] | Activity [6] | Activity [7] | Activity [8] | Activity [9] | Activity [10] | inhibition [11]
1 | 3680 nM | 0.66 µM | 377% | 5.38 |  | Cc1ccc(Nc2cc(NCC(C)C)c(N)c3c2C(=O)c2ccccc2C3=O)cc1 |  | Active | Active | inactive | inactive | Active | Active
2 | 4360 nM | 0.4 µM | 594% | 10.6 |  | CCCNc1cc(Nc2cccc(C)c2)c2c3c(onc13)-c1ccccc1C2=O |  |  |  |  |  |  | 
3 | 3020 nM | 0.7 µM | 276% | 3.54 |  | COc1ccc(Nc2cc(NCC(C)C)c3noc4c3c2C(=O)c2ccccc2-4)cc1 |  |  |  |  |  |  | 
4 | 1570 nM | 0.61 µM | 360% | 5.03 |  | COc1ccc(Nc2cc(NCC(C)C)c(N)c3c2C(=O)c2ccccc2C3=O)cc1 | Active |  | Active | inactive | inactive | Active | Active
5 |  |  | 119% |  | inactive | Cc1cccc(Nc2cc(NCCO)c3noc4c3c2C(=O)c2ccccc2-4)c1 |  |  |  |  |  |  | 
6 |  |  | 78.4% |  | inactive | O=C1c2ccccc2-c2onc3c(NCN4CCCCC4)cc(NCN4CCCCC4)c1c23 |  |  |  |  |  |  | 
7 | 3000 nM | 0.72 µM | 359% | 4.8 |  | Cc1ccc(Nc2cc(NCC(C)C)c3noc4c3c2C(=O)c2ccccc2-4)cc1 |  |  |  |  |  |  | 

The remaining lines, values behind:

Row | SMILES | EC50 [1] | EC200 [2] | Activity [3] | fold change (FC) [4] | Activity [2] | Activity [5] | Activity [6] | Activity [7] | Activity [8] | Activity [9] | Activity [10] | inhibition [11]
8 | O=C1c2cccc(O)c2C(=O)c2c(O)cc(C(=O)N3CCC(c4ccccc4)CC3)cc21 | 2720 nM | 1.37 µM | 233% | 3.71 |  |  |  |  |  |  |  | 
9 | O=C(Nc1ccc(N2CCOCC2)cc1)c1cc(O)c2c(c1)C(=O)c1cccc(O)c1C2=O | 1800 nM | 0.2 µM | 552% | 6.36 |  | Active |  |  |  |  |  | 
10 | COc1ccc(NC(=O)c2cc(O)c3c(c2)C(=O)c2cccc(O)c2C3=O)cc1 | 2050 nM | 0.32 µM | 696% | 8.91 |  |  |  |  |  |  |  | 
11 | O=C1c2cccc(O)c2C(=O)c2c(O)cc(C(=O)N3CCN(c4nccs4)CC3)cc21 | 3570 nM | 1.18 µM | 453% | 4.07 |  |  |  |  |  |  |  | 
12 | CN(CCc1ccccc1)C(=O)c1cc(O)c2c(c1)C(=O)c1cccc(O)c1C2=O |  |  | 148% |  | inactive |  |  |  |  |  |  | 
13 | CC(C)CNC(=O)c1cc(O)c2c(c1)C(=O)c1cccc(O)c1C2=O | 2570 nM | 2.15 µM | 376% | 2.23 |  |  |  |  |  |  |  | 
